According to US20050106305A1, “Beverage compositions comprising monatin and methods of making same” (Cargill, Inc., priority 2003, published 2005):

Assays:
Format in all cases: in vivo
[1] = Sweetness comparison procedure against sucrose reference solutions, trained sensory evaluators; settings: determined at approximately 8% SEV
Protocol: The S,S stereoisomer of monatin is approximately 50-200 times sweeter than sucrose by weight. The R,R stereoisomer of monatin is approximately 2000-2400 times sweeter than sucrose by weight. The sweetness of the monatin is calculated using experienced sensory evaluators in a sweetness comparison procedure, where a test sweetener solution is matched for sweetness intensity against one of a series of reference solutions. The solutions may be prepared, for example, using a buffer comprising 0.16% (w/v) citric acid and 0.02% (w/v) sodium citrate at ˜pH 3.0.
Specifically, one may assess sweetness of a sweetener relative to sucrose by using a panel of trained sensory evaluators experienced in the sweetness estimation procedure. All samples (in same buffers) are served in duplicate at a temperature of 22° C. ±1° C. Sample solutions may be prepared, for example, using a buffer comprising 0.16% (w/v) citric acid and 0.02% (w/v) sodium citrate at ˜pH 3.0. Test solutions, coded with 3 digit random number codes, are presented individually to panelists, in random order. Sucrose reference standards, ranging from 2.0-10.0% (w/v) sucrose, increasing in steps of 0.5% (w/v) sucrose are also provided. Panelists are asked to estimate sweetness by comparing the sweetness of the test solution to the sucrose standards. This is carried out by taking 3 sips of the test solution, followed by a sip of water, followed by 3 sips of sucrose standard followed by a sip of water, etc. Panelists estimate the sweetness to one decimal place, e.g., 6.8, 8.5. A five minute rest period is imposed between evaluating the test solutions. Panelists are also asked to rinse well and eat a cracker to reduce any potential carry over effects.
Sucrose equivalent value (SEV) (e.g., % sucrose), determined by the panel of trained sensory evaluators, is plotted as a function of monatin concentration to obtain a dose response curve. A polynomial curve fit is applied to the dose response curve and used to calculate the sweetness intensity or potency at a particular point, e.g., 8% SEV, by dividing the sucrose equivalent value (SEV) by the monatin concentration (e.g., % monatin). See e.g., FIG. 15 (R,R/S,S monatin dose response curve); FIG. 14 (R,R monatin dose response curve). The above-mentioned sweetness intensities for S,S and R,R monatin (i.e., approximately 50-200 times sweeter and approximately 2000-2400 times sweeter than sucrose by weight, respectively) were determined at approximately 8% SEV.

[2] = Sensory evaluation of sweeteners in coffee and iced tea; settings: 200 mL serving
Protocol: Monatin sweetener formulations, comprising R,R monatin or R,R monatin/erythritol combinations, were assessed relative to other known sweeteners (aspartame and sucralose) in coffee and iced tea. The key sensory parameters assessed included sweetness quality, aftertaste, bitter taste and its aftertaste. Qualitative evaluation was carried out.
Standard coffee was used in which to evaluate sweetener performance (Table 17).
Sweeteners were added to coffee at the following concentrations:
An ice tea formulation was developed to evaluate sweetener performance (Table 18).
Sweeteners were added to tea at the following concentrations:
The evaluation of these coffee and tea drinks was carried out by a panel (n=6) of experienced sensory evaluators who evaluated the coffee products on one tasting occasion and the tea products on a subsequent occasion.

[3] = Taste profiling of lemon/lime carbonates and colas; settings: HFCS 10%, aspartame 500 ppm, sucralose 200 ppm, blends 30.8 ppm/5.0%; for Average Score: score 1, poor-5, good, sucrose 10%
Protocol: Cola and lemon/lime beverages were prepared using the following formulations and sweetened with sucrose, HFCS (55% fructose), aspartame, sucralose, monatin (racemic mix described in Example 14), monatin/sucrose, or monatin/HFCS. One part of syrup was added to 5.5 parts carbonated water and evaluated.
Assessments were carried out ‘double blind’ by a panel of trained tasters. The sucrose-sweetened product was identified as the control and all other products randomly coded. Panelists were asked to assess the randomly coded sample relative to the control for the following attributes:
Panelists also were asked assign a score (1; poor-5; good) for the quality of the sweetener system. A summary of the comments generated together with the average score awarded is presented in Tables 12 and 13 for lemon/lime carbonates and colas, respectively. […] Blends of monatin/carbohydrate rated higher. In the cola, monatin was similar to aspartame.

[4] = Time intensity profile in a soft drink system; settings: 80 ppm monatin, 10.0% sucrose, 200 ppm sucralose, pH 3.2 model soft drink; for Intensity of Maximum Sweetness: scale 0-100
Protocol: Solutions of 80 ppm monatin (racemic mix of monatin described in Example 14), 10.0% (w/v) sucrose and 200 ppm sucralose were prepared in the pH 3.2 model soft drink system described in Example 14. The time intensity profile of these solutions then was assessed using the following procedure. Six panelists were included in the study. These panelists were screened for their general sensory acuity and selected for their sensitivity to sweetness intensity and sweetness quality differences. All were experienced in methods of sweetener assessment and had received special training in time intensity evaluations. Training sessions were carried out initially to familiarize the panel with the method of evaluation and scoring the samples over time using a computerized data entry system.
Samples of each solution (13 mL) were coded and presented individually to panelists, in random order. For each panelist, immediately after swallowing, the computer recorded timed intensity readings on the scale of 0-100 each second, up to 60 seconds. Each solution was evaluated in duplicate.

[5] = Sensory evaluation of soft drinks (lemon/lime, orangeade, cola)
Protocol: Beverages (cola, lemon-lime and orange) were formulated and sweetened with aspartame, sucralose or R,R monatin. Qualitative evaluation was carried out.
The term “throw” refers to dilution in water. For example, a throw of “1+4” means 1 part concentrate formulation to 4 parts water. Thus, if a concentrate formulation includes 0.021% wt/vol (i.e., 210 ppm) of R,R monatin, for example, a throw of 1+4 makes a diluted beverage containing 42 ppm (210 ppm/5) R,R monatin.
Final ready-to-drink beverages (after throw) contained sweetener concentrations as follows:
Evaluation of these soft drinks was carried out by a panel (n=6) of assessors who evaluated each set of drinks on separate tasting occasions.

[6] = Taste profiling of monatin/carbohydrate blends
Protocol: The quality of equisweet monatin/carbohydrate (50:50) blends then was assessed relative to sucrose by a small panel of trained assessors. This evaluation was carried out “double blind.” The sucrose-sweetened system was identified as the control and all other products randomly coded. Panelists were asked to assess the randomly coded sample relative to the control for the following attributes: Sweetness Profile: Onset, build and decay; Flavor Profile: Acidity, bitterness and other characteristics; Mouthfeel; and Aftertaste. Panelists also were asked to assign a score (1; poor-5; good) for the quality of the sweetener system. A summary of the comments made and scores given is presented as Table 10.

[7] = cola, sucrose 10% (control), monatin 80 ppm
[8] = lemon/lime carbonate, sucrose 10% (control), monatin 67 ppm
[9] = lemon/lime carbonate, monatin 67 ppm
[10] = equisweet monatin/carbohydrate (50:50) blends relative to sucrose control

Compound	times sweeter than sucrose by weight [1]	Flavor Profile [3, 7]	Aftertaste [3, 8]	Flavor Profile [3, 8]	Average Score ([3]; cola, monatin 80 ppm)	Average Score [3, 9]	Area Under Curve [4]	Rate of Decline [4]	Rate of Onset [4]	Time for Sweetness to Decline to Half Maximum Value [4]	Time to Half Maximum Sweetness [4]	Time to Maximum Sweetness [4]	Intensity of Maximum Sweetness [4]	also measured
NC(CC(O)(Cc1c[nH]c2ccccc12)C(=O)O)C(=O)O (stereo not drawn) [R,R monatin, 2-hydroxy-2-(indol-3-ylmethyl)-4-aminoglutaric acid]	2000-2400 times													times sweeter than sucrose by weight ([1]; listed as R,R): 2000-2400 times; times sweeter than sucrose by weight ([1]; listed as R,R stereoisomer): 2000-2400 times
NC(CC(O)(Cc1c[nH]c2ccccc12)C(=O)O)C(=O)O (stereo not drawn) [S,S monatin, 2-hydroxy-2-(indol-3-ylmethyl)-4-aminoglutaric acid]	50-200 times													times sweeter than sucrose by weight ([1]; listed as S,S): 50-200 times; times sweeter than sucrose by weight ([1]; listed as S,S stereoisomer): 50-200 times
OC[C@H]1O[C@H](O[C@]2(CCl)O[C@H](CCl)[C@@H](O)[C@@H]2O)[C@H](O)[C@@H](O)[C@H]1Cl [Sucralose, sucralose]		Sweet flavor, slightly	Slight licorice note	Zesty and refreshing	3.8	4.1	119.7 unit × s	2.1 unit/s	16.0 unit/s	33.1 s	2.6 s	8.0 s	64.6 unit	Comments (sensory evaluation) ([2]; Coffee, aspartame 250 ppm, sucralose 82 ppm, R,R monatin 25 ppm + maltodextrin or erythritol (1 g, 0.5%)): Slow sweetness onset allows stronger; Comments (sensory evaluation) ([2]; Iced Tea, aspartame 450 ppm, sucralose 170 ppm, R,R monatin 40 ppm + maltodextrin or erythritol (1 g, 0.5%)): Delay in sweetness onset means first; Aftertaste [3, 7]: Some sweetness; Mouthfeel [3, 7]: Slightly thinner than; Comments (sensory evaluation) ([5]; Cola, aspartame 550 ppm, sucralose 220 ppm, R,R monatin 45 ppm): Delay in sweetness onset means first; Comments (sensory evaluation) ([5]; Lemon/lime soft drink, aspartame 500 ppm, sucralose 200 ppm, R,R monatin 42 ppm): Slow sweetness onset allows stronger; Comments (sensory evaluation) ([5]; Orangeade, aspartame 550 ppm, sucralose 220 ppm, R,R monatin 45 ppm): Delay in sweetness onset means first
OC[C@H]1O[C@@](CO)(O[C@H]2O[C@H](CO)[C@@H](O)[C@H](O)[C@H]2O)[C@@H](O)[C@@H]1O [Sucrose, sucrose]		Sweet, rounded, warm	Slight bitterness and	Soft, balanced	4.5	4.8	116.9 unit × s	2.3 unit/s	17.9 unit/s	24.9 s	2.3 s	8.0 s	64.1 unit	Aftertaste [6, 10]: Slight lingering; Flavor Profile [6, 10]: Pleasant, citrus; Mouthfeel [6, 10]: Full, syrupy; Sweetness Profile [6, 10]: Fast onset and build; Average Score ([6]; score 1, poor-5, good, equisweet monatin/carbohydrate (50:50) blends, sucrose control): 4.0
